Reference: patent publication EP0572494B1, “COMPOSITION FOR USE IN TRANSDERMAL ADMINISTRATION” (priority 1991, dated 1992)

How the values were obtained:
[1] = according to Gruber et al; cited from earlier work
[2] = Urinary ibuprofen after topical application to shaved dorsal skin; assay type: in vivo, Hooded Wistar rats; details: topically applied composition according to the invention
From the text: Four anesthetized Hooded Wistar rats were fitted with jugular and bladder catheters. […] Plastic covers were placed over the shaved area to prevent the animals ingesting the applied composition.
The animals were placed in metabolism cages and the urinary ibuprofin monitored.

[3] = Particle size distribution by microscopic examination; assay type: physicochemical
Protocol: For the purposes of this specification the particle size of the particles was determined by microscopic examination. It should be assumed that the particles are of a constant thickness. The surface area of each visible particle face should be determined, and the particle size calculated by calculating the square root of the visible surface area of each particle.
(§1) The particle size of the ibuprofen crystallites precipitated during the cooling and stirring of the above formulation was compared with that of the unreacted ibuprofen powder. The respective particle sizes were determined by microscopic examination. It was assumed that the crystals were of a constant thickness. The surface area of each crystal was then determined, and the particle size calculated by calculating the square root of the measured surface area. This value was then taken to be the length of side. The total area of the counted particles was measured and the sum of the areas of the different size ranges estimated as a percentage of the total. The results were: Table 1
as §1, with “crystals” for “ibuprofen crystallites precipitated during the cooling and stirring of the above formulation was compared with that of the unreacted ibuprofen powder. The respective particle sizes”

Percentage Particles in Size range ([3]; size range 10-20µm) [Percentage] | Percentage Particles in Size range ([3]; size range 20-50µm) [Percentage] | Percentage Particles in Size range ([3]; size range 50-100µm) [Percentage] | Percentage Particles in Size range ([3]; size range >100µm) [Percentage] | Structure (SMILES) | solubility in water and conventional media [1] | absorption kinetics [2] | time still being excreted after topical application [2]
– | – | – | – | CC(C)Cc1ccc(C(C)C(=O)O)cc1 (stereo not shown) [ibuprofen] | only sparingly soluble | zero order kinetics | more than 160 hours
0.36 | 0.57 | 2.7 | 96 | O=C1O[C@H]([C@@H](O)CO)C(O)=C1O [Unformulated Ascorbic Acid, ascorbic acid] | – | – | –
